Source: patent publication US20210300912A1 (Ikena Oncology, Inc., priority 2019, published 2021)
pEC50: −log10 of the molar value.

The compounds below were run against T1, AHR (Homo sapiens, UniProt P35869) (assay: DRE-Luciferase Reporter Assay, HepG2, agonist). Conditions: HepG2 cells, agonist mode, Table 2, read-out: DRE-Luc HepG2 - Agonist: Average EC50.
T1 construct: endogenous in cells; host or cells: HepG2 (human), DRE-luciferase reporter stably or transiently transfected
T1 sequence (P35869 11-848): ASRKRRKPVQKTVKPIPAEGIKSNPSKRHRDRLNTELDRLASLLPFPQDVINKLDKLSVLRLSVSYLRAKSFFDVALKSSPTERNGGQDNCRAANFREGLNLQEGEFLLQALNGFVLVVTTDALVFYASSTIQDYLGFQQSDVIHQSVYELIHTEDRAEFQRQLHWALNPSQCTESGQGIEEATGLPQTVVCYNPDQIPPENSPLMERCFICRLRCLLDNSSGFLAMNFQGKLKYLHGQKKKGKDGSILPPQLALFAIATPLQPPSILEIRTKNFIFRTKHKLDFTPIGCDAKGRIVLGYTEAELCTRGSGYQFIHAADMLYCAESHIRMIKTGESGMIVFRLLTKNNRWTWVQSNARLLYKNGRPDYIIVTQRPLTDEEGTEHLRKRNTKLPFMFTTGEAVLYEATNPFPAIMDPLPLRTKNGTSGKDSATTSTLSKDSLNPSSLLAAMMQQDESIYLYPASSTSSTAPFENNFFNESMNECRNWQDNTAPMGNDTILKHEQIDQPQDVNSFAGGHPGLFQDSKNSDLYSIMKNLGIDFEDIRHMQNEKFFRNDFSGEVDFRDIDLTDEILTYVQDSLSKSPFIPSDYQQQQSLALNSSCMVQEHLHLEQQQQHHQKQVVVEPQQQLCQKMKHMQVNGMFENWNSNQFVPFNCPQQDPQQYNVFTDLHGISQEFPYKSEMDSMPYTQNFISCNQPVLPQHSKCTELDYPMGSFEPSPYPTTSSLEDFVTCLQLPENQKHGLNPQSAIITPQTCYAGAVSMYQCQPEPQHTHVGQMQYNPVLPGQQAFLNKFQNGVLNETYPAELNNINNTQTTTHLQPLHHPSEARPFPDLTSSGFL
Type: cell-based
Protocol: (§1) AHR binds to Dioxin Responsive Elements (DRE) upstream of genes that it activates. One measure of AHR activity is activation of a reporter gene, such as luciferase, downstream of one or multiple DRE elements. Luciferase activity will reflect activation and inhibition of AHR in the cells expressing this reporter.
(§2) Murine Hepa1-6 or Hepa-1c1c7 or other murine cell line with a DRE-luciferase reporter either stably or transiently transfected are plated in media in plates (96-well, 384-well or other plates) and incubated overnight at 37 C in a CO2 incubator. Likewise, human HepG2 or other human cell line with a DRE-luciferase reporter either stably or transiently transfected are plated in media in plates (96-well, 384-well or other plates) and incubated overnight at 37 C in a CO2 incubator.
(§3) The next day, an AHR agonist compound is added. Cells are incubated for 6, 16 or 24 hours or another time point and then lysed for determination of luciferase activity as a read-out of the AHR activation. Luciferase can be measured with a commercial kit such as the Promega Luciferase kit or any kit or reagents that provide the luciferin substrate for measuring luciferase activity. The level of luciferase with only activating ligand (e.g. such as TCDD, kynurenine, ITE (2-(1H-indole-3-ylcarbonyl)-4-thiazolecarboxylic methyl ester), VAF347, BNF (beta-naphthoflavone), ICZ (6-formylindolo(3,2-b) carbazole or other AHR ligands) added is the maximum signal while the luciferase with no ligand is the minimum signal. EC50s can be determined as the concentration which activates half of the maximum luciferase activity.

Row | pEC50 | Structure (SMILES)
1 | 6.00 to 7.00 | COC(=O)c1csc(C(=O)c2c[nH]c3cc(OC)ccc23)n1 [Compound I-6]
2 | < 6.00 | COC(=O)c1nc(C(=O)c2c[nH]c3ccccc23)sc1C(C)C [Compound I-31]
3 | < 6.00 | COC(=O)c1csc(C(=O)c2c[nH]c3ccc(O)cc23)n1 [Compound I-44]
4 | 6.00 to 7.00 | CO/N=C(\c1nc(C(=O)OC)cs1)c1c[nH]c2ccccc12 [Compound P-10]
5 | < 6.00 | O=C(O)c1coc(C(=O)c2c[nH]c3ccccc23)n1 [Compound I-38]
6 | < 6.00 | CC(C)c1sc(C(=O)c2c[nH]c3ccccc23)nc1C(=O)O [Compound I-32]
7 | < 6.00 | COC(=O)c1csc([C@@H](O)c2c[nH]c3ccccc23)n1 [Compound P-15]
8 | < 6.00 | COC(=O)c1c[nH]c(C(=O)c2c[nH]c3ccccc23)n1 [Compound I-36]
9 | 6.00 to 7.00 | COC(=O)c1nc(C(=O)c2c[nH]c3cccc(C)c23)sc1C [Compound I-15]
10 | < 6.00 | C[N+](C)(C)CCOCCNC(=O)c1csc(C(=O)c2c[nH]c3ccccc23)n1 [Compound I-22]
11 | 6.00 to 7.00 | COC(=O)c1csc(C(=O)c2c[nH]c3ccc(OC)cc23)n1 [Compound P-7]
12 | 6.00 to 7.00 | CN(CCOCCO)C(=O)c1csc(C(=O)c2c[nH]c3ccccc23)n1 [Compound I-12]
13 | < 6.00 | COC(=O)c1csc(C(=O)c2cn(C)c3ccccc23)n1 [Compound P-16]
14 | < 6.00 | COC(=O)c1csc(/C(=N\O)c2c[nH]c3ccccc23)n1 [Compound P-13]
15 | < 6.00 | Cc1sc(C(=O)c2c[nH]c3ccccc23)nc1C(=O)NCCOCCO [Compound I-29, N-[2-(2-Hydroxyethoxy)ethyl]-2-(1H-indole-3-carbonyl)-5-methyl-thiazole-4-carboxamide]
16 | 7.00 to 8.00 | NC(=O)c1csc(C(=O)c2c[nH]c3ccccc23)n1 [Compound P-5]
17 | < 6.00 | Cn1cc(C(=O)O)nc1C(=O)c1c[nH]c2ccccc12 [Compound I-43]
18 | < 6.00 | COC(=O)c1csc(C(=O)n2cnc3ccccc32)n1 [Compound I-27]
19 | < 6.00 | COC(=O)c1cn(C)c(C(=O)c2c[nH]c3ccccc23)n1 [Compound I-30]
20 | < 6.00 | COC(=O)c1coc(C(=O)c2c[nH]c3ccccc23)n1 [Compound P-19]
21 | 6.00 to 7.00 | O=C(NCCOCCO)c1csc(C(=O)c2c[nH]c3ccccc23)n1 [Compound I-13]
22 | < 6.00 | CC(C)(C)OC(=O)NCCOCCNC(=O)c1csc(C(=O)c2c[nH]c3ccccc23)n1 [Compound I-41, tert-Butyl N-[2-[2-[[2-(1H-indole-3-carbonyl)thiazole-4-carbonyl]amino]ethoxy]ethyl]carbamate]
23 | < 6.00 | Cn1c(C(=O)O)cnc1C(=O)c1c[nH]c2ccccc12 [Compound I-39]
24 | 6.00 to 7.00 | O=C(OCCO)c1csc(C(=O)c2c[nH]c3ccccc23)n1 [Compound P-9]

Row | pEC50 | Structure (SMILES)
25 | 7.00 to 8.00 | CN(C)C(=O)c1csc(C(=O)c2c[nH]c3ccccc23)n1 [Compound I-3, 2-(1H-Indole-3-carbonyl)-N,N-dimethyl-thiazole-4-carboxamide]
26 | < 6.00 | COC(=O)c1csc([C@H](O)c2c[nH]c3ccccc23)n1 [Compound P-14]
27 | < 6.00 | CN(C)CCOCCNC(=O)c1csc(C(=O)c2c[nH]c3ccccc23)n1 [Compound I-34, N-[2-[2-(Dimethylamino)ethoxy]ethyl]-2-(1H-indole-3-carbonyl)thiazole-4-carboxamide]
28 | < 6.00 | C[N+](C)(C)CCOCCOC(=O)c1csc(C(=O)c2c[nH]c3ccccc23)n1 [Compound I-24]
29 | 6.00 to 7.00 | Cc1sc(C(=O)c2c[nH]c3ccccc23)nc1C(=O)NCCOCC[N+](C)(C)C [Compound I-16]
30 | < 6.00 | CN(CCO)CCOC(=O)c1csc(C(=O)c2c[nH]c3ccccc23)n1 [Compound I-21]
31 | 6.00 to 7.00 | O=C(OCCOCCO)c1csc(C(=O)c2c[nH]c3ccccc23)n1 [Compound P-6]
32 | < 6.00 | Cc1sc(C(=O)c2c[nH]c3ccccc23)nc1C(=O)O [Compound I-40]
33 | > 8.00 | Cc1sc(C(=O)c2c[nH]c3ccccc23)nc1C(=O)OCCOCC[N+](C)(C)C [Compound I-1]
34 | < 6.00 | COC(=O)c1csc(C(=O)c2n[nH]c3ccccc23)n1 [Compound P-17]
35 | < 6.00 | CO/N=C(/c1nc(C(=O)OC)cs1)c1c[nH]c2ccccc12 [Compound P-11]
36 | < 6.00 | O=C(c1nc(C(=O)N2CCCCC2)cs1)c1c[nH]c2ccccc12 [Compound I-35, 1H-indol-3-yl-[4-(piperidine-1-carbonyl)thiazol-2-yl]methanone]
37 | > 8.00 | COC(=O)c1nc(C(=O)c2c[nH]c3ccccc23)sc1C [Compound P-1]
38 | < 6.00 | CN1CCN(C(=O)c2csc(C(=O)c3c[nH]c4ccccc34)n2)CC1 [Compound I-25]
39 | 6.00 to 7.00 | COC(=O)c1nc(C(=O)c2c[nH]c3ccccc23)sc1C [Compound I-14]
40 | < 6.00 | O=C(O)COCCNC(=O)c1csc(C(=O)c2c[nH]c3ccccc23)n1 [Compound I-37]
41 | < 6.00 | COC(=O)c1csc(C(=O)c2c[nH]c3cccnc23)n1 [Compound P-18]
42 | 6.00 to 7.00 | Cc1sc(C(=O)c2c[nH]c3ccccc23)nc1C(=O)NCCOCCN(C)C [Compound I-17]
43 | < 6.00 | NCCOCCNC(=O)c1csc(C(=O)c2c[nH]c3ccccc23)n1 [Compound I-42]
44 | < 6.00 | O=C(O)CCOCCNC(=O)c1csc(C(=O)c2c[nH]c3ccccc23)n1 [Compound I-26]
45 | < 6.00 | C[N+]1(C)CCN(C(=O)c2csc(C(=O)c3c[nH]c4ccccc34)n2)CC1 [Compound I-28]
46 | < 6.00 | COC(=O)c1cnc(C(=O)c2c[nH]c3ccccc23)n1C [Compound I-33]
47 | 6.00 to 7.00 | COC(=O)c1csc(/C(=N/O)c2c[nH]c3ccccc23)n1 [Compound P-8]
48 | < 6.00 | COC(=O)c1csc(C(=O)c2c[nH]c3cc(O)ccc23)n1 [Compound I-45]

Same assay, conditions: HepG2 cells, agonist mode, Table 3, read-out: DRE-Luc HepG2 - Agonist: Average EC50

Row | pEC50 | Structure (SMILES)
49 | < 6.00 | CC(C)c1csc(C(=O)c2c[nH]c3c(C(=O)O)cccc23)n1 [Compound I-89]
50 | > 8.00 | N#Cc1nc(C(=O)c2c[nH]c3ccccc23)sc1N [Compound I-50]
51 | 6.00 to 7.00 | COC(=O)c1csc(C(=O)c2c[nH]c3cccc(N)c23)n1 [Compound I-93]
52 | > 8.00 | COC(=O)c1ccc2c(C(=O)c3nc(C(=O)OC)c(N)s3)c[nH]c2c1 [Compound I-96]
53 | > 8.00 | CCc1csc(C(=O)c2c[nH]c3ccccc23)n1 [Compound I-57]
54 | 6.00 to 7.00 | CC(C)c1csc(C(=O)c2c[nH]c3cc(C(=O)O)ccc23)n1 [Compound I-59]
55 | > 8.00 | COC(=O)c1nc(C(=O)c2c[nH]c3ccccc23)sc1Br [Compound I-53]
56 | > 8.00 | CC(C)(C)c1csc(C(=O)c2c[nH]c3ccccc23)n1 [Compound I-61]
57 | > 8.00 | COC(=O)c1nc(C(=O)c2c[nH]c3ccccc23)sc1N [Compound I-56]
58 | 6.00 to 7.00 | CC(C)c1csc(C(=O)c2c[nH]c3ccc(C(=O)O)cc23)n1 [Compound I-78, 3-(4-Isopropylthiazole-2-carbonyl)-1H-indole-5-carboxylic acid]

The compounds below were run against T2, AHR (Mus musculus, UniProt P30561) (assay: DRE-Luciferase Reporter Assay, Hepa1.6, agonist). Conditions: DRE-Luc Hepa1.6 - Agonist: Average EC50 (μM), Hepa1.6 cells, agonist mode, Table 3.
T2 construct: endogenous in cells; host or cells: Hepa1-6 / Hepa1.6 (murine hepatoma); DRE-luciferase reporter transfected in A3, no transfection in A2
T2 sequence (P30561 10-805 limits assumed): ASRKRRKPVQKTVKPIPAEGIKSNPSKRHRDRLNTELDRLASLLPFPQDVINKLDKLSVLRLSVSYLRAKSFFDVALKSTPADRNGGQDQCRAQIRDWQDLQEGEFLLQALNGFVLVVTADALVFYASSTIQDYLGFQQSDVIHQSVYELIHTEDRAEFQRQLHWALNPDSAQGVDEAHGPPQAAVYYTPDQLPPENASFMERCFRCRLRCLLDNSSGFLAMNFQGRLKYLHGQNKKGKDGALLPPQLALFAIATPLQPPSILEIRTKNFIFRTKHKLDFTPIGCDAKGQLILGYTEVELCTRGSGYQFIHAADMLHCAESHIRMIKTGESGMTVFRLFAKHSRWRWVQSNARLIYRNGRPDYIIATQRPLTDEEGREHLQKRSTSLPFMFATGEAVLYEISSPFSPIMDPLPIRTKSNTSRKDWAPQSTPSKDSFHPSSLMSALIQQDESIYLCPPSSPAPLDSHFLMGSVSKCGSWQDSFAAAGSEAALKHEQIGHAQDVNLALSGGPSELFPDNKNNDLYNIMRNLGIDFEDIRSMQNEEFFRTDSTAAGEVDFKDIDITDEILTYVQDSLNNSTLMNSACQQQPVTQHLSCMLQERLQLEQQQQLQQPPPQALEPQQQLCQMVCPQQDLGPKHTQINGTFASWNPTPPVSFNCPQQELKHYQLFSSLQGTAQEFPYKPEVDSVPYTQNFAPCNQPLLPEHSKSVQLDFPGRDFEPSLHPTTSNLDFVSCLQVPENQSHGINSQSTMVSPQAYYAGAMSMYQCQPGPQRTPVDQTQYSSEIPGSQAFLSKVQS
T2 sequence (P11499 whole entry partner): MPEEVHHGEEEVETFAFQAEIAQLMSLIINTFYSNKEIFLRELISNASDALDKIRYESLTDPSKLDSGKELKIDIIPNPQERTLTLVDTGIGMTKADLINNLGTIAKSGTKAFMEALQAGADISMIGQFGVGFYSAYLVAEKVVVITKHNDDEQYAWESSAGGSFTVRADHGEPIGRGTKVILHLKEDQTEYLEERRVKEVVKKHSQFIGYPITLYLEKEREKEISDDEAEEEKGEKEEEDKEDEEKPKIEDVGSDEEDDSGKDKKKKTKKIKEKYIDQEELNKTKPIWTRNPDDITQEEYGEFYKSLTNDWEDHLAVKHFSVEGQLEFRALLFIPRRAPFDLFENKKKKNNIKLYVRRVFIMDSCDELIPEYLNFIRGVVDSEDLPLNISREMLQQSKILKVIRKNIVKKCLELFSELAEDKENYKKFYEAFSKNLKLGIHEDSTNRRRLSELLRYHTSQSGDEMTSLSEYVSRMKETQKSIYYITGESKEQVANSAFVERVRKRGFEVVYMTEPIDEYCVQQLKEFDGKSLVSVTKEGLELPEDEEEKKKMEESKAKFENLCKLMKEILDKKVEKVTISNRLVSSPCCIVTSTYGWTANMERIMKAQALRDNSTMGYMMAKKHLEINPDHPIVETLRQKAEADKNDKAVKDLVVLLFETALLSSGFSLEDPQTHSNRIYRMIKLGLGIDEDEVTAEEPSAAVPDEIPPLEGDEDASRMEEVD
T2 sequence (O08915 whole entry partner): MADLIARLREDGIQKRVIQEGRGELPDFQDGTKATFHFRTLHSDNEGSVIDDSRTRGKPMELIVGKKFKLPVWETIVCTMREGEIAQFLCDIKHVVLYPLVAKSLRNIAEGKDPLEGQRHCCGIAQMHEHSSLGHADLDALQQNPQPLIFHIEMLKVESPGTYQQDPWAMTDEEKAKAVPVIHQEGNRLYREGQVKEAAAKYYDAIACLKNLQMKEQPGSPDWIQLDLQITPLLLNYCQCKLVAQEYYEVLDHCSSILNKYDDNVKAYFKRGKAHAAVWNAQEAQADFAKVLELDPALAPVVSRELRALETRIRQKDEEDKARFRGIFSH
Type: cell-based, murine
Protocol: as §1, §2, §3

Row | EC50 | Structure (SMILES)
59 | < 0.01 µM | N#Cc1nc(C(=O)c2c[nH]c3ccccc23)sc1N [Compound I-50]
60 | 0.01 to 0.1 µM | COC(=O)c1csc(C(=O)c2c[nH]c3cccc(N)c23)n1 [Compound I-93]
61 | < 0.01 µM | COC(=O)c1ccc2c(C(=O)c3nc(C(=O)OC)c(N)s3)c[nH]c2c1 [Compound I-96]
62 | < 0.01 µM | CCc1csc(C(=O)c2c[nH]c3ccccc23)n1 [Compound I-57]
63 | 0.1 to 1 µM | CC(C)c1csc(C(=O)c2c[nH]c3cc(C(=O)O)ccc23)n1 [Compound I-59]
64 | 0.01 to 0.1 µM | COC(=O)c1nc(C(=O)c2c[nH]c3ccccc23)sc1Br [Compound I-53]
65 | < 0.01 µM | CC(C)(C)c1csc(C(=O)c2c[nH]c3ccccc23)n1 [Compound I-61]
66 | < 0.01 µM | COC(=O)c1nc(C(=O)c2c[nH]c3ccccc23)sc1N [Compound I-56]

Same assay, conditions: Hepa1.6 cells, agonist mode, Table 3, read-out: DRE-Luc Hepa1.6 - Agonist: Average EC50

Row | pEC50 | Structure (SMILES)
67 | < 6.00 | CC(C)c1csc(C(=O)c2c[nH]c3c(C(=O)O)cccc23)n1 [Compound I-89]
68 | < 6.00 | CC(C)c1csc(C(=O)c2c[nH]c3ccc(C(=O)O)cc23)n1 [Compound I-78, 3-(4-Isopropylthiazole-2-carbonyl)-1H-indole-5-carboxylic acid]
